According to patent US7807676B2, “Diketo-Piperazine and Piperidine derivatives as antiviral agents” (priority 2006, dated 2010):
Counter-ions that a name gives are not always drawn.

System: HIV-1 single-round infectious reporter virus
Experiment: Single-round infectious HIV-1 luciferase reporter virus infection of HeLa CD4 cells (antiviral EC50)
Assay type: cell-based
Details: Human immunodeficiency virus 1, HeLa, read-out: EC50 Group from Table 3
Summary of the method: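 Env-pseudotyped single-round HIV-1 reporter virus (env-deleted provirus with luciferase in place of nef, made in 293 cells) infected HeLa CD4 cells at MOI ~0.01 with compound present, up to 10 μM final. Luciferase luminescence read after 72 h at 37 °C; EC50 from four-parameter logistic fit of % inhibition over 10 concentrations.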

Structure (SMILES) | EC50
N#Cc1cccc(-n2nnnc2N2CCN(C(=O)C(=O)c3c[nH]c4c(-n5ccnn5)ncc(F)c34)CC2)c1 [E-11] | > 500 nM
COc1cnc(-c2ccn(C)n2)c2[nH]cc(C(=O)C(=O)N3CCN(c4nnnn4-c4ccccn4)CC3)c12 [B-73] | < 500 nM
CNC(=O)c1ncc(OC)c2c(C(=O)C(=O)N3CCN(c4nnnn4-c4ccccc4)CC3)c[nH]c12 [B-65] | < 500 nM
O=C(C(=O)N1CCN(c2nnnn2-c2ccccc2)CC1)c1c[nH]c2c(-c3cc(C(=O)N4CCC[C@H]4CO)[nH]n3)ncc(F)c12 [F-6] | < 500 nM
C[C@@H]1CN(c2ncccc2C(=O)N2CCOCC2)CCN1C(=O)C(=O)c1c[nH]c2c(-n3ccnn3)ncc(F)c12 [D-29] | > 500 nM
COc1ccc(-n2nnnc2N2CCN(C(=O)C(=O)c3c[nH]c4c(-n5ccnn5)ncc(F)c34)CC2)cc1 [E-10] | > 500 nM
O=C(C(=O)N1CCC(c2nnc(-c3ccccc3)o2)CC1)c1c[nH]c2c(-n3ccnn3)ncc(F)c12 [A-33] | > 500 nM
O=C(C(=O)N1CCN(C2=NCCN2c2ccccc2)CC1)c1c[nH]c2c(-n3ccnn3)ncc(F)c12 [G-12a] | < 500 nM
COc1cnc(-n2cnc(C)n2)c2[nH]cc(C(=O)C(=O)N3CCN(c4ccnn4-c4ccccn4)CC3)c12 [E-15, 1-(4-methoxy-7-(3-methyl-1H-1,2,4-triazol-1-yl)-1H-pyrrolo[2,3-c]pyridinyl-3-yl)-2-(4-(1-(pyridin-2-yl)-1H-pyrazol-5-yl)piperazin-1-yl)ethane-1,2-dione] | < 500 nM
COc1cnc(Br)c2[nH]cc(C(=O)C(=O)N3CCN(c4nncn4-c4ccccc4)CC3)c12 [A-53] | < 500 nM
O=C(C(=O)N1CCN(c2nnnn2-c2ccccc2)CC1)c1c[nH]c2c(-c3cc(C(=O)N4CCCC(O)C4)[nH]n3)ncc(F)c12 (stereo not shown) [F-11] | < 500 nM
O=C(C(=O)N1CCN(c2nccc(-c3ccccc3)n2)CC1)c1c[nH]c2c(-n3ccnn3)ncc(F)c12 [A-7] | < 500 nM
COc1cnc(-c2csc(C3OCCO3)n2)c2[nH]cc(C(=O)C(=O)N3CCN(c4nnnn4-c4ccccc4)CC3)c12 [B-58] | < 500 nM
CCOC(=O)CCCC(=O)c1cccnc1N1CCN(C(=O)C(=O)c2c[nH]c3c(-n4ccnn4)ncc(F)c23)CC1 [D-41] | > 500 nM
COc1cnc(-n2cnc(C)n2)c2[nH]cc(C(=O)C(=O)N3CCN(c4nnnn4-c4cccc(O)n4)CC3)c12 [E-12c] | < 500 nM
COc1cnc(-n2cnc(C)n2)c2[nH]cc(C(=O)C(=O)N3CCN(c4cnn(C)c4-c4ccccc4)CC3)c12 [G-13b] | < 500 nM
O=C(C(=O)N1[C@@H]2CC[C@H]1CN(c1nnnn1-c1ccccc1)C2)c1c[nH]c2c(-n3ccnn3)ncc(F)c12 [A-71] | < 500 nM
Cc1cc(N2CCN(C(=O)C(=O)c3c[nH]c4c(-n5ccnn5)ncc(F)c34)CC2)nc(-c2ccccc2O)n1 [A-35] | < 500 nM
CNC(=O)Cn1ccc(-c2ncc(OC)c3c(C(=O)C(=O)N4CCN(c5nnnn5-c5ccccn5)CC4)c[nH]c23)n1 [B-77] | < 500 nM
O=C(NCCO)c1ncc(F)c2c(C(=O)C(=O)N3CCN(c4nnnn4-c4ccccc4)CC3)c[nH]c12 [B-55] | < 500 nM
COc1cnc(-c2cccnc2Cl)c2[nH]cc(C(=O)C(=O)N3CCN(c4nnnn4-c4ccccn4)CC3)c12 [H-4] | < 500 nM
CS(=O)(=O)c1nc(N2CCN(C(=O)C(=O)c3c[nH]c4c(-n5ccnn5)ncc(F)c34)CC2)n(-c2ccccc2)n1 [G-28a] | < 500 nM

Structure (SMILES) | EC50
COc1cnc(-n2cnc(C)n2)c2[nH]cc(C(=O)C(=O)N3CCN(c4ncccc4-c4ccccc4)CC3)c12 [G-3a] | < 500 nM
CN(C)CCCNC(=O)c1cc(-c2ncc(F)c3c(C(=O)C(=O)N4CCN(c5nnnn5-c5ccccc5)CC4)c[nH]c23)nn1C [B-45] | < 500 nM
COc1cnc(-n2cnc(C)n2)c2[nH]cc(C(=O)C(=O)N3CCN(c4nn(C)c(=O)cc4-c4ccccc4)C[C@H]3C)c12 [D-50] | > 500 nM
CCOC(=O)CCCCCCC(=O)c1cccnc1N1CCN(C(=O)C(=O)c2c[nH]c3c(-n4ccnn4)ncc(F)c23)CC1 [D-44] | > 500 nM
CN1CCN(CCCNC(=O)c2cc(-c3ncc(F)c4c(C(=O)C(=O)N5CCN(c6nnnn6-c6ccccc6)CC5)c[nH]c34)n[nH]2)CC1 [B-39] | < 500 nM
O=C(c1nccs1)c1cccnc1N1CCN(C(=O)C(=O)c2c[nH]c3c(-n4ccnn4)ncc(F)c23)CC1 [D-33] | < 500 nM
COc1cnc(-n2cnc(C)n2)c2[nH]cc(C(=O)C(=O)N3CCN(c4ncccc4-c4nc5ccccc5s4)CC3)c12 [D-15] | < 500 nM
CCOC(=O)c1cccnc1N1CCN(C(=O)C(=O)c2c[nH]c3c(-n4ccnn4)ncc(F)c23)CC1 [D-24] | < 500 nM
CCOC(=O)N1CCN(c2ccc(-c3ncc(OC)c4c(C(=O)C(=O)N5CCN(c6nnnn6-c6ccccn6)CC5)c[nH]c34)cc2)CC1 [B-85] | < 500 nM
COc1cnc(-n2cnc(C)n2)c2[nH]cc(C(=O)C(=O)N3CCN(c4ncccc4N4CC(C)(C)C4=O)C[C@H]3C)c12 [D-12] | > 500 nM
O=C(C(=O)N1CCN(c2nsnc2N2CCCC2)CC1)c1c[nH]c2c(-n3ccnn3)ncc(F)c12 [D-47] | < 500 nM
COc1cnc(-n2cnc(C)n2)c2[nH]cc(C(=O)C(=O)N3CCC(c4nccn4-c4ccccc4)CC3)c12 [G-18b] | < 500 nM
O=C(NCCO)c1cc(-c2ncc(F)c3c(C(=O)C(=O)N4CCN(c5nnnn5-c5ccccc5)CC4)c[nH]c23)n[nH]1 [B-37] | < 500 nM
COc1cnc(-n2cnc(C)n2)c2[nH]cc(C(=O)C(=O)N3CCN(c4nc(N(C)C)nn4-c4ccccc4)CC3)c12 [G-4b] | < 500 nM
COc1cnc(-n2cc(Cl)cn2)c2[nH]cc(C(=O)C(=O)N3CCN(c4nnnn4-c4ccccn4)CC3)c12 [B-79] | < 500 nM
COc1cnc(-c2cc(CN(C)CCN(C)C)[nH]n2)c2[nH]cc(C(=O)C(=O)N3CCN(c4nnnn4-c4ccccc4)CC3)c12 [B-26, 1-(7-(5-(((2-(dimethylamino)ethyl)(methyl)amino)methyl)-1H-pyrazol-3-yl)-4-methoxy-1H-pyrrolo[2,3-c]pyridin-3-yl)-2-(4-(1-phenyl-1H-tetrazol-5-yl)piperazin-1-yl)ethane-1,2-dione TFA] | < 500 nM
COc1cnc(-c2ccc(N3CCN(C(=O)OCC(C)C)CC3)cc2)c2[nH]cc(C(=O)C(=O)N3CCN(c4nnnn4-c4ccccn4)CC3)c12 [B-84] | < 500 nM
O=C(C(=O)N1CCN(c2nn[nH]c2-c2ccccn2)CC1)c1c[nH]c2c(-n3ccnn3)ncc(F)c12 [G-24a] | < 500 nM
COc1cnc(-n2cnc(C)n2)c2[nH]cc(C(=O)C(=O)N3CCN(c4nncn4-c4ccccc4)CC3)c12 [A-44] | < 500 nM
O=C(c1ccccn1)c1cccnc1N1CCN(C(=O)C(=O)c2c[nH]c3c(-n4ccnn4)ncc(F)c23)CC1 [D-32] | < 500 nM
CN(C)C(=O)Nc1ncc(F)c2c(C(=O)C(=O)N3CCN(c4nnnn4-c4ccccc4)CC3)c[nH]c12 [B-19, 3-(4-fluoro-3-(2-oxo-2-(4-(1-phenyl-1H-tetrazol-5-yl)piperazin-1-yl)acetyl)-1H-pyrrolo[2,3-c]pyridin-7-yl)-1,1-dimethylurea] | < 500 nM
C/C(=N\O)c1ncc(F)c2c(C(=O)C(=O)N3CCN(c4nnnn4-c4ccccc4)CC3)c[nH]c12 [B-49] | < 500 nM

Structure (SMILES) | EC50
COc1cnc(-c2ccc(N)nc2)c2[nH]cc(C(=O)C(=O)N3CCN(c4nnnn4-c4ccccn4)CC3)c12 [H-9] | < 500 nM
COc1cnc(-c2ccnc(F)c2)c2[nH]cc(C(=O)C(=O)N3CCN(c4nnnn4-c4ccccn4)CC3)c12 [H-8] | < 500 nM
COc1cnc(-n2cnc(C)n2)c2[nH]cc(C(=O)C(=O)N3CCN(c4ncnn4-c4ccccc4)CC3)c12 [G-27b] | < 500 nM
CN1CCN(C(=O)c2cc(-c3ncc(F)c4c(C(=O)C(=O)N5CCN(c6nnnn6-c6ccccc6)CC5)c[nH]c34)n[nH]2)CC1 [F-1] | < 500 nM
CC(=O)c1ncc(F)c2c(C(=O)C(=O)N3CCN(c4nnnn4-c4ccccc4)CC3)c[nH]c12 [B-47] | < 500 nM
C[C@@H]1CN(C(=O)C(=O)c2c[nH]c3c(-n4ccnn4)ncc(F)c23)CCN1c1nnnn1-c1ccccc1 [A-45] | < 500 nM
CCc1ncn(-c2ncc(OC)c3c(C(=O)C(=O)N4CCN(c5ncccc5C(=O)c5nccs5)CC4)c[nH]c23)n1 [A-68] | < 500 nM
Cn1ncc(N2CCN(C(=O)C(=O)c3c[nH]c4c(-n5ccnn5)ncc(F)c34)CC2)c1-c1ccccc1 [G-13a] | < 500 nM
COc1cnc(-c2cnc(N3CCN(C)CC3)cn2)c2[nH]cc(C(=O)C(=O)N3CCN(c4nnnn4-c4ccccc4)CC3)c12 [G-2a] | < 500 nM
O=C(C(=O)N1CCN(c2cccc(-c3ccccc3)c2)CC1)c1c[nH]c2c(-n3ccnn3)ncc(F)c12 [A-3] | < 500 nM
COc1cnc(-n2cnc(C)n2)c2[nH]cc(C(=O)C(=O)N3CCN(c4nc(C)nc5scc(-c6ccccc6)c45)C[C@H]3C)c12 [D-10] | < 500 nM
O=C(C(=O)N1CCN(c2nccn2-c2ccccc2)CC1)c1c[nH]c2c(-n3ccnn3)ncc(F)c12 [A-49] | < 500 nM
CCOC(=O)c1cc(-c2ncc(F)c3c(C(=O)C(=O)N4CCN(c5c[nH]nc5-c5ccccc5)CC4)c[nH]c23)n[nH]1 [B-51] | < 500 nM
CCOC(=O)Cn1cc(N2CCN(C(=O)C(=O)c3c[nH]c4c(-n5ccnn5)ncc(F)c34)CC2)c(-c2ccccc2)n1 [G-20] | < 500 nM
O=C(C(=O)N1CCN(c2ncccc2-c2nc3ccccc3s2)CC1)c1c[nH]c2c(-n3ccnn3)ncc(F)c12 [D-31] | > 500 nM
O=C(C(=O)N1CCN(c2ncccc2-c2ccccc2)CC1)c1c[nH]c2c(-n3ccnn3)ncc(F)c12 [G-3b] | < 500 nM
O=C(C(=O)N1CCC(c2nc3ccccc3n2-c2ccccc2)CC1)c1c[nH]c2c(-n3ccnn3)ncc(F)c12 [A-16] | < 500 nM
COc1cnc(-n2cnc(C)n2)c2[nH]cc(C(=O)C(=O)N3CCN(c4ncccc4C(=O)NCc4ccccc4)CC3)c12 [D-16] | > 500 nM
O=C(C(=O)N1CCN(c2cncnc2-c2ccccc2)CC1)c1c[nH]c2c(-n3ccnn3)ncc(F)c12 [G-19a] | < 500 nM
CCOC(=O)c1cccnc1N1CCN(C(=O)C(=O)c2c[nH]c3c(-n4cnc(C)n4)ncc(OC)c23)CC1 [D-8] | < 500 nM
